Experimental data as given in article PMC8282186, “Identification of a gustatory receptor tuned to sinigrin in the cabbage butterfly Pieris rapae” (PLoS Genetics, 2021).

Target: T1, PrapGr28 (Pieris rapae, UniProt Z9RYY0XAY3)
T1 construct: also UAS-PrapGr28 in Drosophila Gr5a sweet neurons; oligomer unknown
T1 sequence (Z9RYY0XAY3 1-399): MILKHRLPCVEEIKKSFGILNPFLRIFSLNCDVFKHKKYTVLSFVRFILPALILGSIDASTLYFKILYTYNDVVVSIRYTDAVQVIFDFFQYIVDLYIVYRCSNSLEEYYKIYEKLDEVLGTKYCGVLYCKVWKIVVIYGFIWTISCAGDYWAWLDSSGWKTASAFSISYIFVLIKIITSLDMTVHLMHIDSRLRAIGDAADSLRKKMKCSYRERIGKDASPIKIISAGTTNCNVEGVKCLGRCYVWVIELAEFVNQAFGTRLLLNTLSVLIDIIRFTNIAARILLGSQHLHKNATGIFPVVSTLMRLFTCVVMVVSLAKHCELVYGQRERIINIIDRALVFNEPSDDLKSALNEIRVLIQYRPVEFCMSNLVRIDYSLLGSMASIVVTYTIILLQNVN
Test: two-electrode voltage clamp, inward current in Xenopus oocytes
Assay type: cell-based
Conditions: agonist; PrapGr28 expressed alone; holding potential -80 mV; 0.1-50 mM dose range; also tip recording of Drosophila L-type sensilla expressing PrapGr28
Description: two-electrode voltage clamp, inward current in Xenopus oocytes on […]28 | the oocytes expressing […]28 selectively responded to sinigrin

Compound: C=CC/C(=N/OS(=O)(=O)O)S[C@@H]1O[C@H](CO)[C@@H](O)[C@H](O)[C@H]1O [sinigrin]
- inward current response at 1 mM: the oocytes expressing PrapGr28 selectively responded to sinigrin
